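Test compounds were applied to cells in 96-well plates for 48 hours at 5 doses. Here, GI50 denotes the concentration required for 50% inhibition of growth. TGI: total growth inhibition.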
Experiments:
Test in all cases: NCI-60 cell line screen, 48 h
SR leukemia = test system: SR leukemia
SNB-19 CNS = test system: SNB-19 CNS
TK-10 renal = test system: TK-10 renal
OVCAR-3 ovarian = test system: OVCAR-3 ovarian
HCC-2998 colon = test system: HCC-2998 colon
RPMI-8226 leukemia = test system: RPMI-8226 leukemia
SF-539 CNS = test system: SF-539 CNS
SNB-75 CNS = test system: SNB-75 CNS
HS 578T breast = test system: HS 578T breast
HOP-62 NSCLC = test system: HOP-62 NSCLC
NCI-H460 lung = test system: NCI-H460 lung
UACC-62 melanoma = test system: UACC-62 melanoma
OVCAR-5 ovarian = test system: OVCAR-5 ovarian
NCI-H522 lung = test system: NCI-H522 lung
T-47D breast = test system: T-47D breast
OVCAR-8 ovarian = test system: OVCAR-8 ovarian
PC-3 prostate = test system: PC-3 prostate
A498 renal = test system: A498 renal
A549 NSCLC = test system: A549 NSCLC
U251 CNS = test system: U251 CNS
EKVX NSCLC = test system: EKVX NSCLC
IGROV1 ovarian = test system: IGROV1 ovarian
ACHN renal = test system: ACHN renal
HCT-116 colon = test system: HCT-116 colon
NCI/ADR-RES ovarian = test system: NCI/ADR-RES ovarian
LOX IMVI melanoma = test system: LOX IMVI melanoma
UACC-257 melanoma = test system: UACC-257 melanoma
HOP-92 NSCLC = test system: HOP-92 NSCLC
HCT-15 colon = test system: HCT-15 colon
KM12 colon = test system: KM12 colon
MDA-MB-468 breast = test system: MDA-MB-468 breast
786-0 renal = test system: 786-0 renal
SK-MEL-5 melanoma = test system: SK-MEL-5 melanoma
SF-295 CNS = test system: SF-295 CNS
MDA-MB-231 breast = test system: MDA-MB-231 breast
CAKI-1 renal = test system: CAKI-1 renal
CCRF-CEM leukemia = test system: CCRF-CEM leukemia
M14 melanoma = test system: M14 melanoma
SN12C renal = test system: SN12C renal
SF-268 CNS = test system: SF-268 CNS
MDA-MB-435 = test system: MDA-MB-435
SK-MEL-2 melanoma = test system: SK-MEL-2 melanoma
RXF 393 renal = test system: RXF 393 renal
OVCAR-4 ovarian = test system: OVCAR-4 ovarian
SK-OV-3 ovarian = test system: SK-OV-3 ovarian
COLO 205 colon = test system: COLO 205 colon
MALME-3M melanoma = test system: MALME-3M melanoma
UO-31 renal = test system: UO-31 renal
DU-145 prostate = test system: DU-145 prostate
K-562 leukemia = test system: K-562 leukemia
BT-549 breast = test system: BT-549 breast
NCI-H23 lung = test system: NCI-H23 lung
HL-60(TB) leukemia = test system: HL-60(TB) leukemia
NCI-H226 lung = test system: NCI-H226 lung
MCF7 breast = test system: MCF7 breast
SK-MEL-28 melanoma = test system: SK-MEL-28 melanoma
MOLT-4 leukemia = test system: MOLT-4 leukemia

## COc1ccc(C(=O)Nc2sc3c(c2C#N)CCC(=O)C3)cc1C(F)(F)F
SR leukemia
  GI50: 339 nM
  TGI: > 100000 nM
SNB-19 CNS
  GI50: 2500 nM
  TGI: 10500 nM
TK-10 renal
  GI50: 1210 nM
  TGI: 7600 nM
OVCAR-3 ovarian
  GI50: 845 nM
  TGI: 2440 nM
HCC-2998 colon
  GI50: 1450 nM
  TGI: 3200 nM
RPMI-8226 leukemia
  GI50: 145 nM
SF-539 CNS
  GI50: 343 nM
  TGI: 1280 nM
SNB-75 CNS
  GI50: 1220 nM
  TGI: 3680 nM
HS 578T breast
  GI50: 862 nM
  TGI: 3680 nM
HOP-62 NSCLC
  GI50: 2650 nM
  TGI: 8880 nM
NCI-H460 lung
  GI50: 2110 nM
  TGI: 6730 nM
UACC-62 melanoma
  GI50: 826 nM
  TGI: 2210 nM
OVCAR-5 ovarian
  GI50: 1960 nM
  TGI: 4840 nM
NCI-H522 lung
  GI50: 225 nM
  TGI: 753 nM
T-47D breast
  GI50: 352 nM
  TGI: 2080 nM
OVCAR-8 ovarian
  GI50: 1280 nM
  TGI: 3710 nM
PC-3 prostate
  GI50: 317 nM
  TGI: 4000 nM
A498 renal
  GI50: 5740 nM
  TGI: 36100 nM
A549 NSCLC
  GI50: 2780 nM
  TGI: > 100000 nM
U251 CNS
  GI50: 723 nM
  TGI: 2530 nM
EKVX NSCLC
  GI50: 2350 nM
  TGI: 8760 nM
IGROV1 ovarian
  GI50: 1290 nM
  TGI: 2970 nM
ACHN renal
  GI50: 375 nM
  TGI: 1260 nM
HCT-116 colon
  GI50: 299 nM
  TGI: 1580 nM
NCI/ADR-RES ovarian
  GI50: 1300 nM
  TGI: 3640 nM
LOX IMVI melanoma
  GI50: 416 nM
  TGI: 1650 nM
UACC-257 melanoma
  GI50: 1600 nM
  TGI: 3920 nM
HOP-92 NSCLC
  GI50: 708 nM
  TGI: 2530 nM
HCT-15 colon
  GI50: 385 nM
  TGI: 1490 nM
KM12 colon
  GI50: 584 nM
  TGI: 2210 nM
MDA-MB-468 breast
  GI50: 495 nM
  TGI: 1480 nM
786-0 renal
  GI50: 1820 nM
  TGI: 7270 nM
SK-MEL-5 melanoma
  GI50: 1350 nM
  TGI: 2660 nM
SF-295 CNS
  GI50: 1790 nM
  TGI: 4780 nM
MDA-MB-231 breast
  GI50: 1140 nM
  TGI: 2600 nM
CAKI-1 renal
  GI50: 491 nM
  TGI: 1840 nM
CCRF-CEM leukemia
  GI50: 270 nM
  TGI: > 100000 nM
M14 melanoma
  GI50: 499 nM
  TGI: 1920 nM
SN12C renal
  GI50: 966 nM
  TGI: 6190 nM
SF-268 CNS
  GI50: 2030 nM
  TGI: 6600 nM
MDA-MB-435
  GI50: 594 nM
  TGI: 2060 nM
SK-MEL-2 melanoma
  GI50: 1670 nM
  TGI: 4060 nM
RXF 393 renal
  GI50: 434 nM
  TGI: 1690 nM
OVCAR-4 ovarian
  GI50: 1110 nM
  TGI: 2760 nM
SK-OV-3 ovarian
  GI50: 2480 nM
  TGI: 6710 nM
COLO 205 colon
  GI50: 582 nM
  TGI: 1620 nM
MALME-3M melanoma
  GI50: 370 nM
  TGI: 1420 nM
UO-31 renal
  GI50: 422 nM
  TGI: 1620 nM
DU-145 prostate
  GI50: 2910 nM
  TGI: > 30400 nM
K-562 leukemia
  GI50: 294 nM
  TGI: > 100000 nM
BT-549 breast
  GI50: 564 nM
  TGI: 1920 nM
NCI-H23 lung
  GI50: 537 nM
  TGI: 2710 nM
HL-60(TB) leukemia
  GI50: 339 nM
  TGI: 5780 nM
NCI-H226 lung
  GI50: 2310 nM
  TGI: 7090 nM
MCF7 breast
  GI50: 408 nM
  TGI: 3150 nM
SK-MEL-28 melanoma
  GI50: 882 nM
  TGI: 2330 nM
MOLT-4 leukemia
  GI50: 322 nM
  TGI: > 19700 nM

From PubChem BioAssay (NCI)
